Measured values published in the supplement of paper PMC10307832.

How the values were obtained:
Assay in all cases: relative viability (nuclei count vs DMSO), 5 days (fraction); higher = more cells survive
A-427 = tested on: A-427
Summary of the method: (§1)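 Relative viability divides the nuclei count in treated wells by that in vehicle wells. Lung cancer cell lines were seeded in 1536-well plates, dosed by pin tool the next day, and fixed and stained after 5 days in one step with final 0.05% Triton X-100, 1% formaldehyde and 1 ug/ml Hoechst. Dosing was a single drug or a fixed anchor-drug dose plus five library-drug doses (not always all listed) in √10 steps, and values are medians of duplicate plates imaged at 4×.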

BEN = tested on: BEN
Summary of the method: as §1

HARA = tested on: HARA
Summary of the method: as §1

LCLC-97TM1 = tested on: LCLC-97TM1
Summary of the method: as §1

LOU-NH91 = tested on: LOU-NH91
Summary of the method: as §1

LU99A = tested on: LU99A
Summary of the method: as §1

LXF-289 = tested on: LXF-289
Summary of the method: as §1

NCI-H1395 = tested on: NCI-H1395
Summary of the method: as §1

NCI-H1666 = tested on: NCI-H1666
Summary of the method: as §1

NCI-H1755 = tested on: NCI-H1755
Summary of the method: as §1

NCI-H1793 = tested on: NCI-H1793
Summary of the method: as §1

NCI-H1915 = tested on: NCI-H1915
Summary of the method: as §1

NCI-H1944 = tested on: NCI-H1944
Summary of the method: as §1

NCI-H2023 = tested on: NCI-H2023
Summary of the method: as §1

NCI-H2126 = tested on: NCI-H2126
Summary of the method: as §1

NCI-H2170 = tested on: NCI-H2170
Summary of the method: as §1

NCI-H23 = tested on: NCI-H23
Summary of the method: as §1

NCI-H322M = tested on: NCI-H322M
Summary of the method: as §1

NCI-H441 = tested on: NCI-H441
Summary of the method: as §1

NCI-H460 = tested on: NCI-H460
Summary of the method: as §1

NCI-H650 = tested on: NCI-H650
Summary of the method: as §1

PC-3 [JPC-3] = tested on: PC-3 [JPC-3]
Summary of the method: as §1

SK-LU-1 = tested on: SK-LU-1
Summary of the method: as §1

O=c1[nH]c2ccccc2n1C1CCN(CCCC(c2ccc(F)cc2)c2ccc(F)cc2)CC1 [Pimozide] + O=C(CCCCCCC(=O)Nc1ccccc1)NO [Vorinostat] (partner 1 µM)
relative viability (A-427; first compound 0.08 µM): 0.893 | relative viability (A-427; first compound 0.253 µM): 0.875 | relative viability (A-427; first compound 0.8 µM): 0.775 | relative viability (A-427; first compound 2.53 µM): 0.854 | relative viability (A-427; first compound 8 µM): 0.815 | relative viability (BEN; first compound 0.08 µM): 0.558 | relative viability (BEN; first compound 0.253 µM): 0.579 | relative viability (BEN; first compound 0.8 µM): 0.607 | relative viability (BEN; first compound 2.53 µM): 0.601 | relative viability (BEN; first compound 8 µM): 0.603 | relative viability (HARA; first compound 0.08 µM): 0.433 | relative viability (HARA; first compound 0.253 µM): 0.477 | relative viability (HARA; first compound 0.8 µM): 0.519 | relative viability (HARA; first compound 2.53 µM): 0.484 | relative viability (HARA; first compound 8 µM): 0.399 | relative viability (LCLC-97TM1; first compound 0.08 µM): 0.753 | relative viability (LCLC-97TM1; first compound 0.253 µM): 0.738 | relative viability (LCLC-97TM1; first compound 0.8 µM): 0.455 | relative viability (LCLC-97TM1; first compound 2.53 µM): 0.526 | relative viability (LCLC-97TM1; first compound 8 µM): 0.584 | relative viability (LOU-NH91; first compound 0.08 µM): 0.741 | relative viability (LOU-NH91; first compound 0.253 µM): 0.883 | relative viability (LOU-NH91; first compound 0.8 µM): 0.852 | relative viability (LOU-NH91; first compound 2.53 µM): 0.98 | relative viability (LOU-NH91; first compound 8 µM): 0.872 | relative viability (LU99A; first compound 0.08 µM): 0.595 | relative viability (LU99A; first compound 0.8 µM): 0.418 | relative viability (LU99A; first compound 2.53 µM): 0.5 | relative viability (LU99A; first compound 8 µM): 0.537 | relative viability (LXF-289; first compound 0.08 µM): 0.796 | relative viability (LXF-289; first compound 0.253 µM): 0.748 | relative viability (LXF-289; first compound 0.8 µM): 0.718 | relative viability (LXF-289; first compound 2.53 µM): 0.88 | relative viability (LXF-289; first compound 8 µM): 0.755 | relative viability (NCI-H1395; first compound 0.08 µM): 0.696 | relative viability (NCI-H1395; first compound 0.253 µM): 0.607 | relative viability (NCI-H1395; first compound 0.8 µM): 0.629 | relative viability (NCI-H1395; first compound 2.53 µM): 0.711 | relative viability (NCI-H1395; first compound 8 µM): 0.628 | relative viability (NCI-H1666; first compound 0.08 µM): 1.09 | relative viability (NCI-H1666; first compound 0.253 µM): 0.905 | relative viability (NCI-H1666; first compound 0.8 µM): 0.924 | relative viability (NCI-H1666; first compound 2.53 µM): 0.991 | relative viability (NCI-H1666; first compound 8 µM): 1.02 | relative viability (NCI-H1755; first compound 0.08 µM): 0.886 | relative viability (NCI-H1755; first compound 0.253 µM): 0.668 | relative viability (NCI-H1755; first compound 0.8 µM): 0.721 | relative viability (NCI-H1755; first compound 2.53 µM): 0.738 | relative viability (NCI-H1755; first compound 8 µM): 0.682 | relative viability (NCI-H1793; first compound 0.08 µM): 0.642 | relative viability (NCI-H1793; first compound 0.253 µM): 0.761 | relative viability (NCI-H1793; first compound 0.8 µM): 0.693 | relative viability (NCI-H1793; first compound 2.53 µM): 0.761 | relative viability (NCI-H1793; first compound 8 µM): 0.624 | relative viability (NCI-H1915; first compound 0.08 µM): 0.525 | relative viability (NCI-H1915; first compound 0.253 µM): 0.48 | relative viability (NCI-H1915; first compound 2.53 µM): 0.432 | relative viability (NCI-H1915; first compound 8 µM): 0.487 | relative viability (NCI-H1944; first compound 0.08 µM): 0.563 | relative viability (NCI-H1944; first compound 2.53 µM): 0.636 | relative viability (NCI-H1944; first compound 8 µM): 0.47 | relative viability (NCI-H2023; first compound 0.08 µM): 0.583 | relative viability (NCI-H2023; first compound 0.253 µM): 0.747 | relative viability (NCI-H2023; first compound 0.8 µM): 0.353 | relative viability (NCI-H2023; first compound 2.53 µM): 0.547 | relative viability (NCI-H2023; first compound 8 µM): 0.484 | relative viability (NCI-H2126; first compound 0.08 µM): 0.704 | relative viability (NCI-H2126; first compound 0.253 µM): 0.818 | relative viability (NCI-H2126; first compound 0.8 µM): 0.782 | relative viability (NCI-H2126; first compound 2.53 µM): 0.785 | relative viability (NCI-H2126; first compound 8 µM): 0.868 | relative viability (NCI-H2170; first compound 0.08 µM): 0.717 | relative viability (NCI-H2170; first compound 0.253 µM): 0.848 | relative viability (NCI-H2170; first compound 0.8 µM): 0.808 | relative viability (NCI-H2170; first compound 2.53 µM): 0.793 | relative viability (NCI-H2170; first compound 8 µM): 0.771 | relative viability (NCI-H23; first compound 0.08 µM): 0.573 | relative viability (NCI-H23; first compound 0.253 µM): 0.551 | relative viability (NCI-H23; first compound 0.8 µM): 0.49 | relative viability (NCI-H23; first compound 2.53 µM): 0.575 | relative viability (NCI-H23; first compound 8 µM): 0.52 | relative viability (NCI-H322M; first compound 0.08 µM): 0.885 | relative viability (NCI-H322M; first compound 0.253 µM): 0.844 | relative viability (NCI-H322M; first compound 0.8 µM): 0.88 | relative viability (NCI-H322M; first compound 2.53 µM): 0.885 | relative viability (NCI-H322M; first compound 8 µM): 0.786 | relative viability (NCI-H441; first compound 0.08 µM): 0.699 | relative viability (NCI-H441; first compound 0.253 µM): 0.657 | relative viability (NCI-H441; first compound 0.8 µM): 0.74 | relative viability (NCI-H441; first compound 2.53 µM): 0.857 | relative viability (NCI-H441; first compound 8 µM): 0.687 | relative viability (NCI-H460; first compound 0.08 µM): 0.727 | relative viability (NCI-H460; first compound 0.253 µM): 0.654 | relative viability (NCI-H460; first compound 0.8 µM): 0.711 | relative viability (NCI-H460; first compound 2.53 µM): 0.681 | relative viability (NCI-H460; first compound 8 µM): 0.664 | relative viability (NCI-H650; first compound 0.08 µM): 0.455 | relative viability (NCI-H650; first compound 0.253 µM): 0.386 | relative viability (NCI-H650; first compound 0.8 µM): 0.399 | relative viability (NCI-H650; first compound 2.53 µM): 0.454 | relative viability (NCI-H650; first compound 8 µM): 0.452 | relative viability (PC-3 [JPC-3]; first compound 0.253 µM): 0.763 | relative viability (PC-3 [JPC-3]; first compound 0.8 µM): 0.716 | relative viability (PC-3 [JPC-3]; first compound 2.53 µM): 0.882 | relative viability (PC-3 [JPC-3]; first compound 8 µM): 0.726 | relative viability (SK-LU-1; first compound 0.08 µM): 0.785 | relative viability (SK-LU-1; first compound 0.253 µM): 0.72 | relative viability (SK-LU-1; first compound 0.8 µM): 0.501 | relative viability (SK-LU-1; first compound 2.53 µM): 0.724 | relative viability (SK-LU-1; first compound 8 µM): 0.617
